A short description of data set [1]: Half life in phosphate buffered saline at pH 7.4 at 37 degC. The format is physicochemical.
A further data set has as its system glucuronidase. The data set is described as follows: Half life in phosphate buffered saline at pH 7 in presence of glucuronidase at 37 degC. The format is ADME.

Regarding `Cc1cccc(C)c1OCC(=O)N[C@@H](Cc1ccccc1)[C@H](OC(=O)CCC(=O)NCCN1CCCCC1)C(=O)N1CSC(C)(C)[C@H]1C(=O)NC(C)(C)C`, the half-life in data set [1] came to 12 min.

As to `CC[C@@]1(O)C(=O)OCc2c1cc1n(c2=O)Cc2cc3cc(OCc4ccc(O[C@@H]5O[C@H](C(=O)O)[C@@H](O)[C@H](O)[C@H]5O)c([N+](=O)[O-])c4)ccc3nc2-1`, the half-life in the data set on glucuronidase turned out to be 20 min.

One may read the half-life as the time needed for the level to fall by half in the phase considered.
